Measured values reported in patent US6946297B2, “System for stabilizing samples” (priority 1999, dated 2005).
Where “and” joins values, the source holds several entries; their conditions need not be identical. Equal entries are not always repeated.

Legend:
Type in all cases: cell-based
Escherichia coli = test: Survival of organisms in inoculated urine with preservative components, 24 hours at room temperature; design: key to Survival value esco: 24 h count / control count; 1 = no change, 0.1 = 1-log decrease; details: for Concentration with cidal activity against Escherichia coli: component alone
Description: (§1) Antimicrobial activity for each active ingredient in the Chemistat I formulations was first determined for representative organisms listed in Table I. A culture for each organism of interest on blood agar was incubated at 36° C. overnight. About two to three colonies of the organism were transferred via sterile swab from the blood agar culture into a 5 ml Mueller-Hinton broth culture tube, which was then incubated on a rotator for about two to three hours at 36° C. Using a spectrophotometer set at a wavelength of 630 nm, the turbidity of broth culture was adjusted by the addition of Mueller-Hinton broth to an optical density equivalent to approximately 1×10^8 colony forming units (cfu)/ml to form an inoculum solution. An aliquot of the inoculum solution was plated onto blood agar to determine the actual control organism count. For each component listed in Table II, the component was added to filter-sterilized pooled normal urine at the concentration given in Table II to form a test sample. The test sample was then inoculated with an aliquot of the inoculum solution providing a final organism count of approximately 1×10^6 cfu/ml of test sample. Immediately after thorough mixing, an aliquot of the test sample was removed and serially diluted in PBS, and serial dilutions were plated onto blood agar to determine the Time Zero organism count. The inoculated plates were incubated at 36° C., and organism counts were recorded after 18-24 hours. After incubating the test sample for 24 hours at room temperature, an aliquot of the test sample was again removed, serially diluted in PBS and plated onto blood agar. After incubating for 18-24 hours at 36° C., organism counts were obtained. The organism count obtained after 24 hours incubation at room temperature was divided by the control organism count to provide the survival value of each organism as recorded in Table II. With respect to changes in microbial count, a survival value of 1 represents no change; a survival value of 0.1 indicates a 1-log decrease; a survival value of 10 indicates a 1-log increase; and a survival value of 0.000 represents a decrease of greater than or equal to 3-logs. In comparison, the lower the survival value, the greater the component's capacity for controlling organism growth.

Klebsiella pneumoniae = test: as above
Description: as §1

Proteus vulgaris = test: as above
Description: as §1

Pseudomonas aeruginosa = test: as above
Description: as §1

Enterococcus faecalis = test: as above; design: key to Survival value enfa: 24 h count / control count; 1 = no change, 0.1 = 1-log decrease
Description: as §1

Candida albicans = test: as above; design: key to Survival value caal: 24 h count / control count; 1 = no change, 0.1 = 1-log decrease
Description: as §1

Enterobacter aerogenes = test: as above; design: key to Survival value enae: 24 h count / control count; 1 = no change, 0.1 = 1-log decrease
Description: as §1

[1] = test system: microorganisms of interest; test: Antimicrobial (cidal) activity against the organisms of interest taken together; details: component alone
Description: as §1, with “With respect to changes in microbial count, a survival value of 1 represents no change; a survival value of 0.1 indicates a 1-log decrease; a survival value of 10 indicates a 1-log increase; and a survival value of 0.000 represents a decrease of greater than or equal to 3-logs. In comparison, the lower the survival value, the greater the component's capacity for controlling organism growth.” left out

[2] = single component at 0.005 mg/ml
[3] = single component at 0.0075 mg/ml

OCCc1ccccc1 [2-Phenyl ethanol, 2-phenyl ethanol] was tested, and the “Concentration with cidal activity against Escherichia coli” value (from here on “Concentration … against Escherichia coli”) (Escherichia coli) was 4 μl/ml, the Survival value esco (Escherichia coli; single component at 1 μl/ml) was “tntc” and the Survival value esco (Escherichia coli; single component at 1.8 μl/ml) was “tntc”. It also gave a Survival value esco (Escherichia coli; single component at 2.5 μl/ml) of 0.245, a Survival value esco (Escherichia coli; single component at 4 μl/ml) of 0.000 and a Survival value esco (Escherichia coli; single component at 10 μl/ml) of 0.000. For the same compound, the Survival value klpn (Klebsiella pneumoniae; single component at 1.8 μl/ml) was “tntc”, the Survival value prvu (Proteus vulgaris; single component at 1.8 μl/ml) was “tntc” and the “Concentration with cidal activity against Pseudomonas aeruginosa” value (Pseudomonas aeruginosa; component alone) was 5 μl/ml. For the same compound, the Survival value psae (Pseudomonas aeruginosa; single component at 1 μl/ml) was 4.819, the Survival value psae (Pseudomonas aeruginosa; single component at 1.8 μl/ml) was “tntc” and the Survival value psae (Pseudomonas aeruginosa; single component at 2.5 μl/ml) was 0.199. It also gave a Survival value psae (Pseudomonas aeruginosa; single component at 4 μl/ml) of 0.019, a Survival value psae (Pseudomonas aeruginosa; single component at 5 μl/ml) of 0.000 and a Survival value psae (Pseudomonas aeruginosa; single component at 10 μl/ml) of 0.000. The “Concentration with cidal activity against Enterococcus faecalis” value (Enterococcus faecalis; component alone) was > 10 μl/ml, the Survival value enfa (Enterococcus faecalis; single component at 1 μl/ml) was “tntc” and the Survival value enfa (Enterococcus faecalis; single component at 1.8 μl/ml) was “tntc”. For the same compound, the Survival value enfa (Enterococcus faecalis; single component at 2.5 μl/ml) was “tntc”, the Survival value enfa (Enterococcus faecalis; single component at 4 μl/ml) was “tntc” and the Survival value enfa (Enterococcus faecalis; single component at 5 μl/ml) was “tntc”. For the same compound, the Survival value enfa (Enterococcus faecalis; single component at 10 μl/ml) was 1.495, the “Concentration with cidal activity against Candida albicans” value (Candida albicans; component alone) was 10 μl/ml and the Survival value caal (Candida albicans; single component at 1.8 μl/ml) was “tntc”. The Survival value caal (Candida albicans; single component at 4 μl/ml) was 1.081, the Survival value caal (Candida albicans; single component at 10 μl/ml) was 0.000 and the “Concentration with cidal activity against Enterobacter aerogenes” value (Enterobacter aerogenes; component alone) was 10 μl/ml. The Survival value enae (Enterobacter aerogenes; single component at 1 μl/ml) was “tntc”, the Survival value enae (Enterobacter aerogenes; single component at 2.5 μl/ml) was 0.092 and the Survival value enae (Enterobacter aerogenes; single component at 4 μl/ml) was 0.244. For the same compound, the Survival value enae (Enterobacter aerogenes; single component at 5 μl/ml) was 0.440, the Survival value enae (Enterobacter aerogenes; single component at 10 μl/ml) was 0.000 and the “Concentration required for cidal action” value [1] was “greater than 2.5 μl/ml”.

In the case of CCOC(=O)c1ccc(O)cc1 [Ethyl parahydroxybenzoate, ethyl parahydroxybenzoate], the “Concentration … against Escherichia coli” value (Escherichia coli) is reported as 1 mg/mL, the Survival value esco (Escherichia coli; single component at 0.5 mg/ml) is reported as “tntc” and the Survival value esco (Escherichia coli; single component at 1 mg/ml) is reported as 0.000. For the same compound, the “Concentration inhibitory against Klebsiella pneumoniae (ineffective up to = >)” value (Klebsiella pneumoniae; component alone) was > 1 mg/mL, the Survival value klpn (Klebsiella pneumoniae; single component at 0.5 mg/ml) was “tntc” and the “Concentration inhibitory against Proteus vulgaris (ineffective up to = >)” value (Proteus vulgaris; component alone) was > 1 mg/mL. The Survival value prvu (Proteus vulgaris; single component at 0.5 mg/ml) was “tntc”, the “Concentration inhibitory against Pseudomonas aeruginosa (ineffective up to = >)” value (Pseudomonas aeruginosa; component alone) was > 1 mg/mL and the Survival value psae (Pseudomonas aeruginosa; single component at 0.5 mg/ml) was “tntc”. For the same compound, the Survival value psae (Pseudomonas aeruginosa; single component at 1 mg/ml) was “tntc”, the “Concentration inhibitory against Enterococcus faecalis (ineffective up to = >)” value (Enterococcus faecalis; component alone) was > 1 mg/mL and the Survival value enfa (Enterococcus faecalis; single component at 0.5 mg/ml) was “tntc”. The Survival value enfa (Enterococcus faecalis; single component at 1 mg/ml) was “tntc”, the “Concentration inhibitory against Candida albicans (ineffective up to = >)” value (Candida albicans; component alone) was 0.5 mg/mL and the Survival value caal (Candida albicans; single component at 0.5 mg/ml) was 0.362. The “Concentration inhibitory against Enterobacter aerogenes (ineffective up to = >)” value (Enterobacter aerogenes; component alone) was 1 mg/mL and the Survival value enae (Enterobacter aerogenes; single component at 1 mg/ml) was 0.208.

For [H]/N=C(\N/C(=N/[H])NCCCCCCNC(=N)NC(=N)Nc1ccc(Cl)cc1)Nc1ccc(Cl)cc1 [Chlorhexidine, chlorhexidine, reference compound], the “Concentration … against Escherichia coli” value (Escherichia coli) was 0.0075 mg/mL, the Survival value esco (Escherichia coli; [2]) was 0.003 and the Survival value esco (Escherichia coli; [3]) was 0.000. For the same compound, the Survival value esco (Escherichia coli; single component at 0.01 mg/ml) was 0.000, the Survival value esco (Escherichia coli; single component at 0.02 mg/ml) was 0.000 and the Survival value esco (Escherichia coli; single component at 0.05 mg/ml) was 0.000. The Survival value esco (Escherichia coli; single component at 0.1 mg/ml) was 0.000, the Survival value esco (Escherichia coli; single component at 0.8 mg/ml) was 0.000 and the “Concentration with cidal activity against Klebsiella pneumoniae” value (Klebsiella pneumoniae; component alone) was 0.02 mg/mL. The Survival value klpn (Klebsiella pneumoniae; single component at 0.02 mg/ml) was 0.000, the “Concentration with cidal activity against Proteus vulgaris” value (Proteus vulgaris; component alone) was 0.02 mg/mL and the Survival value prvu (Proteus vulgaris; single component at 0.02 mg/ml) was 0.000. For the same compound, the “Concentration with cidal activity against Pseudomonas aeruginosa” value (Pseudomonas aeruginosa; component alone) was > 0.05 mg/mL, the Survival value psae (Pseudomonas aeruginosa; [2]) was “tntc” and the Survival value psae (Pseudomonas aeruginosa; [3]) was 4.049. For the same compound, the Survival value psae (Pseudomonas aeruginosa; single component at 0.01 mg/ml) was 0.277, the Survival value psae (Pseudomonas aeruginosa; single component at 0.05 mg/ml) was 0.046 and the “Concentration with cidal activity against Enterococcus faecalis” value (Enterococcus faecalis; component alone) was 0.05 to 0.8 mg/mL. The Survival value enfa (Enterococcus faecalis; [2]) was 1.115, the Survival value enfa (Enterococcus faecalis; [3]) was 0.598 and the Survival value enfa (Enterococcus faecalis; single component at 0.01 mg/ml) was 0.520. For the same compound, the Survival value enfa (Enterococcus faecalis; single component at 0.02 mg/ml) was 0.179 and 0.141, the Survival value enfa (Enterococcus faecalis; single component at 0.05 mg/ml) was 0.000 and the Survival value enfa (Enterococcus faecalis; single component at 0.1 mg/ml) was 0.561. The Survival value enfa (Enterococcus faecalis; single component at 0.8 mg/ml) was 0.000, the “Concentration with cidal activity against Candida albicans” value (Candida albicans; component alone) was 0.0075 mg/mL and the Survival value caal (Candida albicans; [2]) was 5.308. It also gave a Survival value caal (Candida albicans; [3]) of 0.000, a Survival value caal (Candida albicans; single component at 0.02 mg/ml) of 0.000 and a Survival value caal (Candida albicans; single component at 0.05 mg/ml) of 0.000. The Survival value caal (Candida albicans; single component at 0.1 mg/ml) was 0.000, the Survival value caal (Candida albicans; single component at 0.8 mg/ml) was 0.000 and the “Concentration with cidal activity against Enterobacter aerogenes” value (Enterobacter aerogenes; component alone) was 0.01 mg/mL. The Survival value enae (Enterobacter aerogenes; [2]) was “tntc”, the Survival value enae (Enterobacter aerogenes; [3]) was 6.098 and the Survival value enae (Enterobacter aerogenes; single component at 0.01 mg/ml) was 0.000. The Survival value enae (Enterobacter aerogenes; single component at 0.05 mg/ml) was 0.000 and the “Concentration required for cidal action” value [1] was “greater than or equal to 0.01 mg/ml”.
